Results on two compounds are retold here after PubChem BioAssay AID463131 (The Scripps Research Institute Molecular Screening Center, 2010).

As a reminder, the inhibition is the drop in the measured response relative to a control, in per cent.

In the assay the target is Protein phosphatase methylesterase 1 (Homo sapiens) (UniProt Q9Y570). Kind of assay: PME-1 inhibition in intact cells, late-stage follow-up, cell-based, fluorescence (AID 463131). The conditions noted are these: fluorescent probe labeling of PME-1, at 0.5 µM, hits give high values.
Sequence of Protein phosphatase methylesterase 1 (Homo sapiens) (Q9Y570 whole entry, looked up): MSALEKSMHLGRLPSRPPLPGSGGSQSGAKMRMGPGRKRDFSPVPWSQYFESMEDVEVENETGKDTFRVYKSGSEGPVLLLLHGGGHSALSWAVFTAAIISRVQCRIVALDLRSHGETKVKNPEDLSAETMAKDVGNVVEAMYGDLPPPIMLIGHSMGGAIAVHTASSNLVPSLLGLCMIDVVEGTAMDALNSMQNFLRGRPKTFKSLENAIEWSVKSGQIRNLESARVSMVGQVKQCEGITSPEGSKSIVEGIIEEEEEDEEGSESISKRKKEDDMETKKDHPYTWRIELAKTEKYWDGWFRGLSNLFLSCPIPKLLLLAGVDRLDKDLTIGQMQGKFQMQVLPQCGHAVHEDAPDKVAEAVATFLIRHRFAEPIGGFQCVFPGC

Turning to `COC(=O)N1C(=O)[C@](c2ccccc2)(C2CCCCC2)N1C(=O)OC`, the inhibition was 100%. In the case of `COC(=O)N1C(=O)[C@](c2ccccc2)(C2CCCC2)N1C(=O)OC`, the inhibition is 100%.
